Laboratory results: ChEMBL document CHEMBL1150322, “Aminopyrazine CB1 receptor inverse agonists” (Bioorg Med Chem Lett, 2008)
Values after ≈ are worked out from the molar mass of the structure shown. One block for each molecule: values may come before it. Active and inactive are the calls of the source. The rule behind the calls is not given here.

Tests used:
Cannabinoid receptor 1 [1] = molecular target: T1, Cannabinoid receptor 1 (Homo sapiens, UniProt P21554); format: functional, cell-based, Sf9
Description: Antagonist activity at human CB1 receptor expressed in SF9 cells assessed as inhibition of CP-55940-stimulated GTPgammaS binding

physchem = conditions: aqueous, pH 7.4
Description: Aqueous solubility at pH 7.4

CYP3A4 = CYP3A4 (Homo sapiens, UniProt P08684); experiment: in vitro; conditions: human liver microsomes, probe midazolam
Rattus norvegicus [2] = species: Rattus norvegicus; experiment: Decrease in blood insulin level in rat after 18 days; format: functional, organism-based
Rattus norvegicus [3] = experiment: Ex vivo receptor occupancy by displacement of [3H]CP-55940 from rat CB1 receptor in po dosed rat cerebellum membrane after 3 hrs; format: functional, organism-based
Homo sapiens [4] = experiment: Ex vivo receptor occupancy by displacement of [3H]CP-55940 from human CB1 receptor in […] after 3 hrs; format: functional; conditions: read-out: ID50 (the source's name)
Rattus norvegicus [5] = experiment: Reduction in cumulative food intake in subchronic diet-induced rat at 5 mg/kg, po qd after 18 days relative to control; format: functional; design: scale not given: the % may be the effect or the level left
Rattus norvegicus [6] = experiment: Reduction in body weight in subchronic diet-induced rat at 5 mg/kg, po qd after 18 days relative to control; format: functional; design: scale not given: the % may be the effect or the level left
[7] = Drug level at Tmax in rat plasma at 5 mg/kg, po qd after 19 days; format: ADME, organism-based; design: dose 5 mg/kg, route oral; conditions: read-out: Drug uptake
[8] = Drug level at Tmax in rat brain at 5 mg/kg, po qd after 19 days; format: ADME, organism-based; design: dose 5 mg/kg, route oral; conditions: read-out: Drug uptake
[9] = Drug level in rat plasma 5 mg/kg, po qd after 19 days measured 17 hrs after last dose; format: ADME, organism-based; design: dose 5 mg/kg, route oral; conditions: read-out: Drug uptake
[10] = Drug level in rat brain at 5 mg/kg, po qd after 19 days measured 17 hrs after last dose; format: ADME, organism-based; design: dose 5 mg/kg, route oral; conditions: read-out: Drug uptake
Rattus norvegicus [11] = species: Rattus norvegicus; experiment: Decrease in blood glucose level in rat after 18 days; format: functional, organism-based
Rattus norvegicus [12] = species: Rattus norvegicus; experiment: animal or person; conditions: po, 24 h, read-out: INH
Description: Inhibition of food intake in overnight fed diet-induced obesity rat model at 5 mg/kg, po after 24 hrs relative to control

Cannabinoid receptor 1 [13] = molecular target: T1, Cannabinoid receptor 1; format: functional, cell-based, Sf9; remark: listed apart in the source
Description: Inverse agonist at human CB1 receptor expressed in SF9 cells assessed as decrease in GTPgammaS level

Rattus norvegicus [14] = experiment: Inhibition of food intake in overnight fed diet-induced obesity rat model at 10 mg/kg, po after 24 hrs relative to control; format: functional
Homo sapiens [15] = species: Homo sapiens; experiment: Selectivity for human CB1 receptor over human CB2 receptor
Cannabinoid receptor 1 [16] = molecular target: Cannabinoid receptor 1 (Rattus norvegicus, UniProt P20272)
Description: Antagonist activity at rat CB1 receptor in SF9 cells assessed as inhibition of CP-55940-stimulated GTPgammaS binding

Cannabinoid receptor 2 = Cannabinoid receptor 2 (Homo sapiens, UniProt P34972)
Description: Antagonist activity at human CB2 receptor in SF9 cells assessed as inhibition of CP-55940-stimulated GTPgammaS binding

Rattus norvegicus [17] = species: Rattus norvegicus; experiment: Decrease in blood leptin level in rat after 18 days; format: functional, organism-based
Rattus norvegicus [18] = experiment: Reduction in cumulative food intake in subchronic diet-induced rat at 1 mg/kg, po qd after 18 days relative to control; format: functional; design: scale not given: the % may be the effect or the level left
Rattus norvegicus [19] = experiment: Reduction in body weight in subchronic diet-induced rat at 1 mg/kg, po qd after 18 days relative to control; format: functional; design: scale not given: the % may be the effect or the level left
[20] = Drug level at Tmax in rat plasma at 1 mg/kg, po qd after 19 days; format: ADME, organism-based; design: dose 1 mg/kg, route oral; conditions: read-out: Drug uptake
[21] = Drug level at Tmax in rat brain at 1 mg/kg, po qd after 19 days; format: ADME, organism-based; design: dose 1 mg/kg, route oral; conditions: read-out: Drug uptake
[22] = Drug level in rat plasma 1 mg/kg, po qd after 19 days measured 17 hrs after last dose; format: ADME, organism-based; design: dose 1 mg/kg, route oral; conditions: read-out: Drug uptake
[23] = Drug level in rat brain at 1 mg/kg, po qd after 19 days measured 17 hrs after last dose; format: ADME, organism-based; design: dose 1 mg/kg, route oral; conditions: read-out: Drug uptake

Chain of Cannabinoid receptor 2 (P34972 whole entry): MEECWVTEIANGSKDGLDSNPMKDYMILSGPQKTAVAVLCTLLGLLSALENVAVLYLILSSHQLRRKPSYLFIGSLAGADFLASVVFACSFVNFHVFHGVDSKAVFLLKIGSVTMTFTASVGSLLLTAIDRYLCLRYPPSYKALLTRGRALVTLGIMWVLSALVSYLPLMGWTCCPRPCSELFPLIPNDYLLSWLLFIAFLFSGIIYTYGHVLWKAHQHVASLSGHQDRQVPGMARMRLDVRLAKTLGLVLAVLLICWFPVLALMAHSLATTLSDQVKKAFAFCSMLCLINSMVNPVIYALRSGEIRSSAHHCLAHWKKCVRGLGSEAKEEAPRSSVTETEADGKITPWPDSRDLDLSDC
T1 sequence (P21554 whole entry): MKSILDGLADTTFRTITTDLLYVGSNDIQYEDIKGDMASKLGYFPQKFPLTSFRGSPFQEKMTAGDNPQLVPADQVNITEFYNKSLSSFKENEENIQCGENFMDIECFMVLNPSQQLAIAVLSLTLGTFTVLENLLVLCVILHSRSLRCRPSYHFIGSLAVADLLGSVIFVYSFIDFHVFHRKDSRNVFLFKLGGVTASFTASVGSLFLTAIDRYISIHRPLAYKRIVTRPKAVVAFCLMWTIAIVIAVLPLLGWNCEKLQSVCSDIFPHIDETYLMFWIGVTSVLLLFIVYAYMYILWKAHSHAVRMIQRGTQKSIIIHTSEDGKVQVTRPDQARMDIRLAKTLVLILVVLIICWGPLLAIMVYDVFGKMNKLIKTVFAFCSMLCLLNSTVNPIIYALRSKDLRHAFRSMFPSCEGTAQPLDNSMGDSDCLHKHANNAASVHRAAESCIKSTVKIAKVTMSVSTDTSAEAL
Chain of Cannabinoid receptor 1 (Rattus norvegicus, UniProt P20272) (P20272 whole entry): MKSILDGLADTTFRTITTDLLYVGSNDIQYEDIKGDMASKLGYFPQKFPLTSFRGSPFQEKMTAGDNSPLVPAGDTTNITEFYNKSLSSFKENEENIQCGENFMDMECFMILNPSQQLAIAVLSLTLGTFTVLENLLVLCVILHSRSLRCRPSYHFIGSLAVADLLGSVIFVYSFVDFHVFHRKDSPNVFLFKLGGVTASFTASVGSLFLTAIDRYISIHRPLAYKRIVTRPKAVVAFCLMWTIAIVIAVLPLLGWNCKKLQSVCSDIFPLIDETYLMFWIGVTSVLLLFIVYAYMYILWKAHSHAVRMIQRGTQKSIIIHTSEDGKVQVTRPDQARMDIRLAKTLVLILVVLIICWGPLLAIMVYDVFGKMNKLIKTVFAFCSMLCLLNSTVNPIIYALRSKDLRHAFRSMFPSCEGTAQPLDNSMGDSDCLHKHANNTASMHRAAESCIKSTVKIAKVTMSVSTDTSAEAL
Chain of CYP3A4 (P08684 whole entry): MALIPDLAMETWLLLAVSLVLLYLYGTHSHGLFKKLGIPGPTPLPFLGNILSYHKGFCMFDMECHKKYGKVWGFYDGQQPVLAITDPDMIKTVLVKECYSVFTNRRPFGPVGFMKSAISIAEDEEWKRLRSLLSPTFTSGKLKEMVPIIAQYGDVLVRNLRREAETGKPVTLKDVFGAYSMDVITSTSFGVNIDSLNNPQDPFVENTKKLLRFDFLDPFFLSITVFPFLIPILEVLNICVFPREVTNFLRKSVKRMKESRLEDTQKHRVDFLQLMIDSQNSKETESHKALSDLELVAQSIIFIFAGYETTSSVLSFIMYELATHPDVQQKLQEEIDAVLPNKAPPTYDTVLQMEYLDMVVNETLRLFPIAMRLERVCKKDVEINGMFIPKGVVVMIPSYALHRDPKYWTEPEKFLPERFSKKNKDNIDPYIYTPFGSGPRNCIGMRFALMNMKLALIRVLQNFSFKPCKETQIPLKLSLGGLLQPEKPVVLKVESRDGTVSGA

Ki (Cannabinoid receptor 1 [1]): 0.8 nM | solubility (physchem): 24 µg/mL (≈ 49 µM) | inhibition at 5 µM (CYP3A4): 11%
Compound: CCC(=O)NC1CCN(c2cnc(-c3ccc(C(F)(F)F)cc3)c(-c3ccncc3Cl)n2)CC1

Ki (Cannabinoid receptor 1 [1]): 0.87 nM | solubility (physchem): 25.5 µg/mL (≈ 50.5 µM) | inhibition at 5 µM (CYP3A4): < 5%
Compound: CCNC1(C(N)=O)CCN(c2cnc(-c3ccc(C(F)(F)F)cc3)c(-c3ccnc(Cl)c3)n2)CC1

Ki (Cannabinoid receptor 1 [1]): 1.75 nM | inhibition at 5 µM (CYP3A4): 20.5%
Compound: CCNC1(C(N)=O)CCN(c2cnc(-c3ccc(F)cc3)c(-c3ccc(Cl)cc3Cl)n2)CC1

Ki (Rattus norvegicus [3]): 1.1 nM | Cmax [7]: 346 ng/mL | concentration at 456 h [8]: 318 ng/mL | concentration at 17 h [9]: 3 ng/mL | concentration at 17 h [10]: 65 ng/mL | solubility (physchem): 0.3 µg/mL (≈ 0.647 µM) | inhibition at 5 µM (CYP3A4): < 5%
Compound: Cc1c(C(=O)NN2CCCCC2)nn(-c2ccc(Cl)cc2Cl)c1-c1ccc(Cl)cc1 [RIMONABANT]
Activity (Rattus norvegicus [2]): Active | ED50 (Homo sapiens [4]): 0.5 mg/kg | Activity (Rattus norvegicus [5]): 13.8% | Activity (Rattus norvegicus [6]): 4.1% | Activity (Rattus norvegicus [11]): Active | inhibition in vivo at 5 mg/kg (Rattus norvegicus [12]): 73%

Ki (Cannabinoid receptor 1 [1]): 2.84 nM | inhibition at 5 µM (CYP3A4): < 5%
Compound: CCNC1(C(N)=O)CCN(c2cnc(-c3ccc(OCC)cc3)c(-c3ccc(OCC)cc3)n2)CC1

Ki (Cannabinoid receptor 1 [1]): 0.83 nM | IC50 (Cannabinoid receptor 1 [13]): 4.2 nM | Ratio Ki (Homo sapiens [15]): > 2000 | Ki (Cannabinoid receptor 1 [16]): 0.83 nM | Ki (Cannabinoid receptor 2): 1900 nM | solubility (physchem): 23 µg/mL (≈ 49.1 µM) | inhibition at 5 µM (CYP3A4): < 5%
Compound: O=S1(=O)CCN(c2cnc(-c3ccc(C(F)(F)F)cc3)c(-c3ccncc3Cl)n2)CC1
inhibition in vivo at 10 mg/kg (Rattus norvegicus [14]): 71%

Ki (Cannabinoid receptor 1 [1]): 1.66 nM | solubility (physchem): 1.25 µg/mL (≈ 2.66 µM) | inhibition at 5 µM (CYP3A4): 9.7%
Compound: CCNC1(C(N)=O)CCN(c2cnc(-c3ccc(Cl)cc3)c(-c3ccccc3Cl)n2)CC1

Ki (Cannabinoid receptor 1 [1]): 0.91 nM | inhibition at 5 µM (CYP3A4): < 5%
Compound: CCNC1(C(N)=O)CCN(c2cnc(-c3ccc(Cl)cc3)c(-c3ccc(Cl)cc3Cl)n2)CC1

Ki (Cannabinoid receptor 1 [1]): 0.67 nM | solubility (physchem): 21.8 µg/mL (≈ 46.3 µM) | inhibition at 5 µM (CYP3A4): 54%
Compound: CCNC1(C(N)=O)CCN(c2cnc(-c3ccc(Cl)cc3)c(-c3ccnc(Cl)c3)n2)CC1

Ki (Cannabinoid receptor 1 [1]): 15 nM | solubility (physchem): 1.2 µg/mL (≈ 2.5 µM) | inhibition at 5 µM (CYP3A4): 10%
Compound: CCNC1(C(N)=O)CCN(c2cnc(-c3ccc(OCC)cc3)c(-c3ccccc3Cl)n2)CC1

Ki (Cannabinoid receptor 1 [1]): 9.81 nM | solubility (physchem): 74.9 µg/mL (≈ 171 µM) | inhibition at 5 µM (CYP3A4): 71%
Compound: CCNC1(C(N)=O)CCN(c2cnc(-c3ccc(Cl)cc3)c(-c3ccncc3)n2)CC1

Ki (Cannabinoid receptor 1 [1]): 32.3 nM | solubility (physchem): 36 µg/mL (≈ 78.1 µM)
Compound: CCNC1(C(N)=O)CCN(c2cnc(-c3ccc(Cl)cc3)c(-c3ccc(C#N)cc3)n2)CC1

Ki (Cannabinoid receptor 1 [1]): 0.24 nM | IC50 (Cannabinoid receptor 1 [13]): 0.54 nM | Ki (Rattus norvegicus [3]): 4.4 nM | Cmax [20]: 121 ng/mL | concentration at 456 h [21]: 235 ng/mL | Cmax [7]: 346 ng/mL | concentration at 456 h [8]: 630 ng/mL | concentration at 17 h [22]: 44.2 ng/mL | concentration at 17 h [23]: 110 ng/mL | concentration at 17 h [9]: 142 ng/mL | concentration at 17 h [10]: 253 ng/mL | Ratio Ki (Homo sapiens [15]): > 2000 | Ki (Cannabinoid receptor 1 [16]): 0.41 nM | Ki (Cannabinoid receptor 2): 4940 nM | solubility (physchem): 4.5 µg/mL (≈ 8.93 µM) | inhibition at 5 µM (CYP3A4): < 5%
Compound: CC(C)C(=O)NC1CCN(c2cnc(-c3ccc(C(F)(F)F)cc3)c(-c3ccncc3Cl)n2)CC1
Activity (Rattus norvegicus [17]): Dose-dependent effect | Activity (Rattus norvegicus [2]): Active | ED50 (Homo sapiens [4]): 0.3 mg/kg | Activity (Rattus norvegicus [18]): 18.8% | Activity (Rattus norvegicus [19]): 4.8% | Activity (Rattus norvegicus [5]): 27.6% | Activity (Rattus norvegicus [6]): 8.5% | Activity (Rattus norvegicus [11]): Active | inhibition in vivo at 5 mg/kg (Rattus norvegicus [12]): 80%

Ki (Cannabinoid receptor 1 [1]): 1.2 nM | IC50 (Cannabinoid receptor 1 [13]): 3.07 nM | Ratio Ki (Homo sapiens [15]): > 2000 | Ki (Cannabinoid receptor 1 [16]): 2.06 nM | Ki (Cannabinoid receptor 2): > 50000 nM | solubility (physchem): 38 µg/mL (≈ 79.7 µM) | inhibition at 5 µM (CYP3A4): < 5%
Compound: CCNC1(C(N)=O)CN(c2cnc(-c3ccc(C(F)(F)F)cc3)c(-c3ccnc(Cl)c3)n2)C1
inhibition in vivo at 10 mg/kg (Rattus norvegicus [14]): 58%
